Read-outs that look alike come from different tables or passages of the source.
Experiments:
[1] = target: T1, menin/MLL (terbium chelate-labeled menin, FITC-MBM1 peptide) (Homo sapiens, UniProt O00255, T541A); assay: Menin/MLL homogenous time-resolved fluorescence (HTRF) assay; type: binding; conditions: 30 min incubation
T1 construct: Menin (a.a 1-610-6xhis tag, 2.3 mg/mL in 20 mM Hepes)
T1 sequence (O00255 with tags, fused parts or gaps T541A): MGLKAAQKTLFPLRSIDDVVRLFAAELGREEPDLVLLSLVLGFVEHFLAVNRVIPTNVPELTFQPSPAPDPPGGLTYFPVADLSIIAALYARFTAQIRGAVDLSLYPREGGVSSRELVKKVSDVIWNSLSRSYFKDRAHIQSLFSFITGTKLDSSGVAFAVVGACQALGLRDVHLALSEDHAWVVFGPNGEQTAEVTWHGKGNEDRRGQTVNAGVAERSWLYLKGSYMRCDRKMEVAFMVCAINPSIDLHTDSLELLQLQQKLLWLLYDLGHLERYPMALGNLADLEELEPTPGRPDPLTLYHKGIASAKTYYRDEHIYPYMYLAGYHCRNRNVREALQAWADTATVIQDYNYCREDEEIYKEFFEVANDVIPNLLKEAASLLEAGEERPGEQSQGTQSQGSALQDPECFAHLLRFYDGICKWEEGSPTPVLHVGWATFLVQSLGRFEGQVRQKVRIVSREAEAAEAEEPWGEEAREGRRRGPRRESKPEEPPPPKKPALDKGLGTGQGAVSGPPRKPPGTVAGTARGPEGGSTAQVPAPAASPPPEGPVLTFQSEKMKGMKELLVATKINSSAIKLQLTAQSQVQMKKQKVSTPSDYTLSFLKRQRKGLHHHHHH
Outline: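 Competition binding read by time-resolved FRET (FITC 520 nm over terbium 490 nm) after compound meets labeled menin 1-610-His […] for 30 min, then FITC-MBM1 (75 nM) for 15 min, ambient temperature, 0.5% DMSO. Eleven-point four-fold dilutions, usually starting at 10 μM, fitted to four-parameter curves for IC50.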

MEIS1 mRNA expression = MEIS1 mRNA expression assay (Quantigene Singleplex) in MOLM14 cells; type: cell-based, human; conditions: 48 hours incubation
Outline: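 Read-out: MEIS1 transcript counts, background-subtracted and divided by RPL28, expressed as fold change over DMSO-treated cells, then dose-response modelled for IC50. MOLM14 cells (3,750/well) received graded compound for 48 h before lysis and QuantiGene hybridization at 55 °C.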

MOLM14 cells = assay: Proliferation assay (spheroid confluence, 8 days), MOLM14; type: cell-based, human; conditions: read-out: spheroid assay_MOLM14 IC50
Method: The anti-proliferative effect of menin/MLL protein/protein interaction inhibitor test compounds was assessed in human leukemia cell lines. The cell line MOLM14 harbors a MLL translocation and expresses the MLL fusion protein MLL-AF9, respectively, as well as the wildtype protein from the second allele. OCI-AML3 cells that carry the NPM1c gene mutation were also tested. […] KO-52 was used as a control cell line containing two MLL (KMT2A) wildtype alleles in order to exclude compounds that display general cytotoxic effects.
MOLM14 cells were cultured in RPMI-1640 (Sigma Aldrich) supplemented with 10% heat-inactivated fetal bovine serum (HyClone), 2 mM L-glutamine (Sigma Aldrich) and 50 μg/ml gentamycin (Gibco). KO-52 and OCI-AML3 cell lines were propagated in alpha-MEM (Sigma Aldrich) supplemented with 20% heat-inactivated fetal bovine serum (HyClone), 2 mM L-glutamine (Sigma Aldrich) and 50 μg/ml gentamycin (Gibco).
In order to assess the anti-proliferative effects, 200 MOLM14 cells, 200 OCI-AML3 cells or 300 KO-52 cells were seeded in 200 μl media per well in 96-well round bottom, ultra-low attachment plates (Costar, catalogue number 7007). Cell seeding numbers were chosen based on growth curves to ensure linear growth throughout the experiment. Test compounds were added at different concentrations and the DMSO content was normalized to 0.3%. Cells were incubated for 8 days at 37° C. and 5% CO2. Spheroid like growth was measured in real-time by live-cell imaging (IncuCyteZOOM, Essenbio, 4×objective) acquiring images at day 8. Confluence (%) as a measure of spheroid size was determined using an integrated analysis tool.
In order to determine the effect of the test compounds over time, the confluence in each well as a measure of spheroid size, was calculated. Confluence of the highest dose of a reference compound was used as baseline for the LC (Low control) and the confluence of DMSO treated cells was used as 0% cytotoxicity (High Control, HC).
Absolute IC50 values were calculated as percent change in confluence as follows:
LC=Low Control: cells treated with e.g. 1 μM of the cytotoxic agent staurosporin, or e.g. cells treated with a high concentration of an alternative reference compound
HC=High Control: Mean confluence (%) (DMSO treated cells)
% Effect=100−(100*(Sample−LC)/(HC−LC))
GraphPad Prism (version 7.00) was used to calculate the IC50. Dose-response equation was used for the plot of % Effect vs Log10 compound concentration with a variable slope and fixing the maximum to 100% and the minimum to 0%.

| IC50 [1] [nM] | IC50 (MEIS1 mRNA expression; Homo sapiens, MOLM-14, 48 h) [nM] | IC50 (MOLM14 cells; Homo sapiens, MOLM-14, MOLM14) [nM] | IC50 (MEIS1 mRNA expression) [nM] | IC50 (MOLM14 cells; MOLM14) [nM] | Compound |
| --- | --- | --- | --- | --- | --- |
| 0.581 | > 1000 | 337 |  |  | Cc1cncc2c1c(C[C@@H]1CCN(CC3CCN(C)C(=O)C3)C1)cn2-c1ccc(F)cc1C(=O)N(C)C(C)C (mixture of isomers) [Compound 171] |
| 0.505 | > 1000 | 424 |  |  | CNC(=O)[C@H]1CC[C@H]([C@@H](C)N2CC(Cc3cn(-c4ccc(F)cc4C(=O)N(C)C(C)C)c4cncc(C)c34)C2)CC1 (single isomer, unassigned) [Compound 162] |
| 0.192 | ~623 | 456 |  |  | CNC(=O)[C@H]1CC[C@H]([C@H](C)N2CC(Cc3cn(-c4ccc(F)cc4C(=O)N(C)C(C)C)c4cncc(C)c34)C2)CC1 (single isomer, unassigned) [Compound 163] |
| 0.209 | 249 | 154 |  |  | CNC(=O)[C@H]1CC[C@H](CN2CC([C@@H](C)c3cn(-c4ccc(F)cc4C(=O)N(C)C(C)C)c4cncc(C)c34)C2)CC1 (single isomer, unassigned) [Compound 164a] |
| 0.084 | 38 | 49 |  |  | CN=[S@](=O)(c1cc(F)ccc1-n1cc(CC2CN(CC3CCOCC3)C2)c2c(C)cncc21)C(C)C (single isomer, unassigned) [Compound 166a] |
| 0.226 | 256 | 120 |  |  | CN=[S@@](=O)(c1cc(F)ccc1-n1cc(CC2CN(CC3CCOCC3)C2)c2c(C)cncc21)C(C)C (single isomer, unassigned) [Compound 166b] |
| 0.19 | > 1000 | 210 |  |  | Cc1cncc2c1c(CC1CN(CC3CCOCC3)C1)cn2-c1ccc(F)cc1[S@](=N)(=O)C(C)C (single isomer, unassigned) [Compound 167a] |
| 0.118 | 117 | 99 |  |  | Cc1cncc2c1c(CC1CN(CC3CCOCC3)C1)cn2-c1ccc(F)cc1[S@@](=N)(=O)C(C)C (single isomer, unassigned) [Compound 167b] |
| 0.061 | 15 | 17 |  |  | Cc1cncc2c1c(C[C@@H]1CCN(C[C@H]3CCNC(=O)CC3)C1)cn2-c1ccc(F)cc1C(=O)N(C)C(C)C (single isomer, unassigned) [Compound 169a] |
| 0.195 | ~220 | 87 |  |  | Cc1cncc2c1c(C[C@@H]1CCN(C[C@@H]3CCNC(=O)CC3)C1)cn2-c1ccc(F)cc1C(=O)N(C)C(C)C (single isomer, unassigned) [Compound 169b] |
| 1.33 | ~1050 | 234 |  |  | CC(=O)N1CC([C@@H](C)N2CC[C@@H](Cc3cn(-c4ccc(F)cc4C(=O)N(C)C(C)C)c4cncc(C)c34)C2)C1 (single isomer, unassigned) [Compound 175] |
| 0.2 | 306 | 46 |  |  | CC(=O)N1CC([C@H](C)N2CC[C@@H](Cc3cn(-c4ccc(F)cc4C(=O)N(C)C(C)C)c4cncc(C)c34)C2)C1 (single isomer, unassigned) [Compound 176] |
| 0.067 | 19 | 12 |  |  | Cc1cncc2c1c(C[C@@H]1CCN(CC3CCOCC3)C1)cn2-c1ccc(F)cc1C(=O)N1CCC[C@@]1(C)CO (single isomer, unassigned) [Compound 362b] |
| 0.337 | 1340 | 1050 |  |  | CC(=O)N1CCC(CN2CC[C@@H](Cc3cn(-c4ccc(F)cc4C(=O)N4CCC(O)C4C)c4cncc(C)c34)C2)CC1 (stereo in doubt) [Compound 325] |

More lines, now with the values behind:

| Compound | IC50 [1] [nM] | IC50 (MEIS1 mRNA expression; Homo sapiens, MOLM-14, 48 h) [nM] | IC50 (MOLM14 cells; Homo sapiens, MOLM-14, MOLM14) [nM] | IC50 (MEIS1 mRNA expression) [nM] | IC50 (MOLM14 cells; MOLM14) [nM] |
| --- | --- | --- | --- | --- | --- |
| Cc1cncc2c1c(C[C@H]1CCN(CC3CCC(=O)NC3)C1)cn2-c1ccc(F)cc1C(=O)N(C)C(C)C (mixture of isomers) [Compound 88] | 0.093 | 140 | 96 |  |  |
| Cc1cncc2c1c(C[C@H]1CCN([C@H](C)C3CCOCC3)C1)cn2-c1ccc(F)cc1C(=O)N(C)C(C)C (single isomer, unassigned) [Compound 49a] | 0.227 | 221 | 113 |  |  |
| CN=S(=O)(c1cc(F)ccc1-n1cc(CC2CCN(CC3CCOCC3)C2)c2c(C)cncc21)C(C)C (single isomer, unassigned) [Compound 77a] | 0.105 |  |  | 206 | 117 |
| Cc1cncc2c1c(C[C@@H]1CCN(CC3CCOCC3)C1)cn2-c1ccc(F)cc1[S@@](=N)(=O)C(C)C (single isomer, unassigned) [Compound 78c] | 0.382 | 416 | 200 |  |  |
| COCC(=O)N1CCC(C(C)N2CCC(Cc3cn(-c4ccc(F)cc4C(=O)N(C)C(C)C)c4cncc(C)c34)C2)CC1 (single isomer, unassigned) [Compound 117b] | 0.27 |  |  | 411 | 300 |
| CC(=O)N1CCC(C)(CN2CC[C@H](Cc3cn(-c4ccc(F)cc4C(=O)N(C)C(C)C)c4cncc(C)c34)C2)CC1 (single isomer, unassigned) [Compound 122] | 0.05 | 18 | 12 |  |  |
| Cc1cncc2c1c(CC1CCN(CC3(C)CCN(C(=O)CO)CC3)C1)cn2-c1ccc(F)cc1C(=O)N(C)C(C)C (single isomer, unassigned) [Compound 123] | 0.052 | 31 | 16 |  |  |
| Cc1cncc2c1c(CC1CCN(CC3CCN(C(=O)C(C)(C)C#N)CC3)C1)cn2-c1ccc(F)cc1C(=O)N(C)C(C)C (single isomer, unassigned) [Compound 126] | 0.091 | 32 | 18 |  |  |
| CN=[S@](=O)(c1cc(F)ccc1-n1cc(C[C@H]2CCN(CC3CCN(C(C)=O)CC3)C2)c2c(C)cncc21)C(C)C (single isomer, unassigned) [Compound 128b] | 0.045 | 65 | 40 |  |  |
| CN=[S@@](=O)(c1cc(F)ccc1-n1cc(C[C@H]2CCN(CC3CCN(C(C)=O)CC3)C2)c2c(C)cncc21)C(C)C (single isomer, unassigned) [Compound 128d] | 0.104 | 419 | 89 |  |  |
| Cc1cncc2c1c(C[C@@H]1CCN(C[C@H]3CCCCO3)C1)cn2-c1ccc(F)cc1C(=O)N(C)C(C)C (single isomer, unassigned) [Compound 147a] | 0.082 | 52 | 10 |  |  |
| CC(=O)N1CCC([C@@H](C)N2CC(Cc3cn(-c4ccc(F)cc4C(=O)N(C)C(C)C)c4cncc(C)c34)C2)CC1 (single isomer, unassigned) [Compound 150] | 0.43 | > 1000 | 1470 |  |  |
| CC(=O)N1CCC(CN2CC[C@@H](Cc3cn(-c4ccc(F)cc4C(=O)N(C)C(C)C)c4cncc(C)c34)C2)CC1 [Compound 51] | 0.042 |  | 8 |  |  |

Reference: patent publication US20230250096A1, “SUBSTITUTED PHENYL-1H-PYRROLO[2,3-c] PYRIDINE DERIVATIVES” (Janssen Pharmaceutica NV, priority 2021, published 2023)
